Some test systems named below: T-47D breast; SW-620 colon; MOLT-4 leukemia; SK-MEL-28 melanoma; MALME-3M melanoma; OVCAR-8 ovarian; NCI/ADR-RES ovarian; HL-60(TB) leukemia; OVCAR-3 ovarian; NCI-H226 lung; SF-539 CNS; OVCAR-5 ovarian; IGROV1 ovarian; 786-0 renal; HOP-62 NSCLC; HOP-92 NSCLC; SK-MEL-2 melanoma; BT-549 breast; K-562 leukemia; LOX IMVI melanoma.
Common to all, as to assay: NCI-60 cell line screen, 48 h

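Where inhibition never reached the appropriate level, the endpoint shown equals the highest concentration tested. Otherwise, values were interpolated linearly from a five-concentration, 48-hour dose response in 96-well plates. TGI: total growth inhibition.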 A value given as a limit tells only on which side of the number the result lay.

Regarding `C=CCN1C[C@H](C)N([C@H](c2ccc(C(=O)N(CC)CC)cc2)c2cccc(OC)c2)C[C@H]1C`, the TGI is 65.5 µM in the assay on T-47D breast; more than 100 µM with SW-620 colon; 99.5 µM with MOLT-4 leukemia; more than 100 µM in the assay on SK-MEL-28 melanoma; 47 µM with MALME-3M melanoma; more than 100 µM with OVCAR-8 ovarian. For the same compound, the TGI with NCI/ADR-RES ovarian was more than 100 µM; with HL-60(TB) leukemia, 64.9 µM; in the assay with OVCAR-3 ovarian, 50.5 µM; in the assay with NCI-H226 lung, 95.6 µM; in the assay with SF-539 CNS, more than 100 µM; in the assay with OVCAR-5 ovarian it was more than 100 µM. Besides, the TGI in the assay with IGROV1 ovarian was more than 100 µM; in the assay on 786-0 renal, more than 100 µM; in the assay with HOP-62 NSCLC it was more than 100 µM; with HOP-92 NSCLC it was 63.9 µM; in the assay on SK-MEL-2 melanoma it was more than 100 µM; in the assay on BT-549 breast it was more than 100 µM.
Regarding `O=[N+]([O-])c1cc(N=Nc2c(O)ccc3cc(S(=O)(=O)O)ccc23)c(O)c([N+](=O)[O-])c1`, the TGI with T-47D breast, with SW-620 colon, with MOLT-4 leukemia, in the assay with SK-MEL-28 melanoma, in the assay with MALME-3M melanoma and with OVCAR-8 ovarian was more than 100 µM each time. Further, the TGI in the assay with NCI/ADR-RES ovarian, in the assay with HL-60(TB) leukemia, in the assay with OVCAR-3 ovarian, in the assay with NCI-H226 lung, with K-562 leukemia and in the assay with OVCAR-5 ovarian was more than 100 µM each time. The TGI with IGROV1 ovarian, in the assay on 786-0 renal, with LOX IMVI melanoma, in the assay on HOP-62 NSCLC, in the assay with HOP-92 NSCLC and in the assay on SK-MEL-2 melanoma was more than 100 µM in each case. The same compound returned a TGI in the assay with BT-549 breast of more than 100 µM.
Regarding `CC(C)OC(=O)[C@H]1ON2O[C@H](O[C@@H]3CCCC[C@H]3c3ccccc3)C([Si](C)(C)c3ccccc3)[C@H]3OC(=O)[C@@H]1C32` (stereo partly drawn), the TGI in the assay on T-47D breast, in the assay with SW-620 colon, with MOLT-4 leukemia, in the assay with SK-MEL-28 melanoma, in the assay with OVCAR-8 ovarian and with NCI/ADR-RES ovarian was more than 100 µM in each case. Moreover, the TGI in the assay on HL-60(TB) leukemia, in the assay on OVCAR-3 ovarian, in the assay on NCI-H226 lung, with K-562 leukemia, in the assay on SF-539 CNS and with IGROV1 ovarian was more than 100 µM in each case. For the same compound, the TGI in the assay with 786-0 renal, in the assay on LOX IMVI melanoma, in the assay on HOP-62 NSCLC, with HOP-92 NSCLC, in the assay with SK-MEL-2 melanoma and in the assay with BT-549 breast was more than 100 µM throughout.
Consider `CC(=O)Oc1c2ccsc2c(OC(C)=O)c2ccsc12`, for which the TGI with T-47D breast worked out at 4.09 µM; with MOLT-4 leukemia it was 4.47 µM; with SK-MEL-28 melanoma, 1.24 µM; in the assay with MALME-3M melanoma it was 0.889 µM; in the assay with OVCAR-8 ovarian it was 1.22 µM; in the assay on NCI/ADR-RES ovarian, 1.23 µM. Further, the TGI is more than 26.5 µM in the assay on HL-60(TB) leukemia; 6.54 µM in the assay with OVCAR-3 ovarian; 5.07 µM in the assay on NCI-H226 lung; more than 100 µM with K-562 leukemia; 0.913 µM in the assay on SF-539 CNS; 3.5 µM with IGROV1 ovarian. Moreover, the TGI with 786-0 renal stood at 5.2 µM; in the assay with LOX IMVI melanoma it was 0.357 µM; with HOP-62 NSCLC, 4.4 µM; in the assay on HOP-92 NSCLC, 2.75 µM; with SK-MEL-2 melanoma, 1.98 µM; in the assay on BT-549 breast it was 1.86 µM.
Consider `O=[N+]([O-])c1cc(-[n+]2cc([O-])on2)ccc1Cl`, for which the TGI in the assay with T-47D breast turned out to be 38.8 µM; in the assay on SW-620 colon it was 26.2 µM; in the assay with SK-MEL-28 melanoma, 29.6 µM; in the assay on MALME-3M melanoma, 32.9 µM; in the assay on OVCAR-8 ovarian, 49.7 µM; in the assay on NCI/ADR-RES ovarian it was 58.8 µM. The TGI with HL-60(TB) leukemia is more than 100 µM; in the assay with OVCAR-3 ovarian it was more than 100 µM; with NCI-H226 lung, more than 100 µM; with K-562 leukemia it was more than 100 µM; in the assay with OVCAR-5 ovarian, 32.4 µM; in the assay on IGROV1 ovarian, 64.5 µM. For the same compound, the TGI amounted to 60.3 µM in the assay on 786-0 renal; 33.7 µM in the assay with LOX IMVI melanoma; 30.1 µM in the assay with HOP-62 NSCLC; 42.1 µM with HOP-92 NSCLC; 46.3 µM in the assay with SK-MEL-2 melanoma; 49 µM in the assay on BT-549 breast.
For the compound `O=C(COc1ccccc1)N(C(=O)N1CCN(c2ccccc2)CC1)S(=O)(=O)c1ccccc1`, the TGI in the assay on T-47D breast was 87.6 µM; with SW-620 colon, more than 100 µM; in the assay with MOLT-4 leukemia, 61.9 µM; with SK-MEL-28 melanoma, more than 100 µM; with MALME-3M melanoma, more than 100 µM; with OVCAR-8 ovarian, more than 100 µM. Moreover, the TGI in the assay on NCI/ADR-RES ovarian, in the assay on HL-60(TB) leukemia, in the assay on OVCAR-3 ovarian, in the assay with NCI-H226 lung, with K-562 leukemia and in the assay on SF-539 CNS was more than 100 µM throughout. The TGI in the assay with OVCAR-5 ovarian, with 786-0 renal, in the assay on LOX IMVI melanoma, in the assay on HOP-62 NSCLC, in the assay on HOP-92 NSCLC and in the assay on SK-MEL-2 melanoma was more than 100 µM each time. Further, the TGI in the assay with BT-549 breast is more than 100 µM.
Consider `CCC1(CC)N=C(C(F)(F)F)c2cc(C(=O)C(F)(F)F)c3ccccc3c2N1`, for which the TGI in the assay with T-47D breast was 15.2 µM; with SW-620 colon, more than 100 µM; in the assay with SK-MEL-28 melanoma, 52.2 µM; in the assay with MALME-3M melanoma, 57.3 µM; in the assay on OVCAR-8 ovarian it was more than 100 µM; with NCI/ADR-RES ovarian, 42.1 µM. Also, the TGI in the assay on HL-60(TB) leukemia is 8.25 µM; in the assay with OVCAR-3 ovarian, 8.58 µM; in the assay with NCI-H226 lung it was 20.9 µM; with K-562 leukemia, more than 100 µM; in the assay with SF-539 CNS, 31.8 µM; in the assay with OVCAR-5 ovarian it was 58.1 µM. Moreover, the TGI in the assay with IGROV1 ovarian was 23 µM; with 786-0 renal, 13.7 µM; in the assay on LOX IMVI melanoma, 13.7 µM; with HOP-62 NSCLC, 28.5 µM; in the assay with HOP-92 NSCLC it was 10.2 µM; in the assay with SK-MEL-2 melanoma it was 10.4 µM. The same compound showed a TGI with BT-549 breast of 29 µM.
On to `O=c1[nH][nH]c(=O)n1/N=C/c1ccccc1`, for which the TGI in the assay on T-47D breast, with SW-620 colon, in the assay on MOLT-4 leukemia, in the assay with SK-MEL-28 melanoma, in the assay with OVCAR-8 ovarian and with NCI/ADR-RES ovarian was more than 100 µM in each case. Also, the TGI with HL-60(TB) leukemia, in the assay with OVCAR-3 ovarian, with NCI-H226 lung, in the assay with K-562 leukemia, with SF-539 CNS and with OVCAR-5 ovarian was more than 100 µM in each case. For the same compound, the TGI with IGROV1 ovarian, in the assay on 786-0 renal, with LOX IMVI melanoma, in the assay on HOP-62 NSCLC, with HOP-92 NSCLC and in the assay with SK-MEL-2 melanoma was more than 100 µM each time. In the assay with BT-549 breast, the TGI is more than 100 µM.
